Measurements published in patent US10561606B2, “Injectable long-acting local anesthetic semi-solid gel formulations” (Mira Pharma Corporation, priority 2017, dated 2020).
Structures can show the parent of a compound that is named as a salt.

What was measured:
[1] = BASF MSDS sheet; cited from earlier work
[2] = cited from earlier work
[3] = Solubility/loading of local anesthetic in oils, castor oil and semi-solid vehicle; format: physicochemical
[4] = system: sciatic nerve; details: cited from earlier work
[5] = limited by low solubility in the vehicle; cited from earlier work
[6] = in poly(lactic acid-co-castor oil), single injection

CCCCN1CCCCC1C(=O)Nc1c(C)cccc1C (stereo not drawn) [bupivacaine hydrochloride]
water solubility [1]: 600 mg/mL

CCCCN1CCCCC1C(=O)Nc1c(C)cccc1C (stereo not drawn) [bupivacaine]
release of bupivacaine from the oil ([2]; fractionated coconut oil, in less than two hours, rotating dialysis cell): 80% | stored bupivacaine released during one week ([2]; from poly(lactic acid-co-castor oil)): 60% | incorporated drug released over one week in vitro ([2]; from poly(sebacic-co-ricinoleic acid)): 70% | solubility in corn oil [3]: 2.8 wt % | solubility in olive oil [3]: 2.5 wt % | solubility in sesame oil [3]: 3.0 wt % | solubility in typical vegetable oils [3]: less than 3 wt % | solubility in vegetable oil [3]: 2.5 wt % | sciatic nerve blockade prolonged to ([4]; 10% (w/v) in poly(sebacic-co-ricinoleic acid), from 8 hours): 30 h | duration of nerve block ([4]; in poly(lactic acid-co-castor oil) at 10% (w/v)): 1 to 2 days | duration of sensory blockade ([4]; in poly(lactic acid-co-castor oil) at 15% (w/v)): 96 h | motor blockade [4, 6]: 64 h | sensory blockade [4, 6]: 96 h

Cc1cccc(C)c1NC(=O)C1CCCCN1C (stereo not drawn) [mepivacaine]
amount that can be loaded into polyorthoester vehicle [5]: about 3 wt %
